Experimental data reported in patent publication US5563155A, “Individual stereosiomers of 7-[3-(aminoalkyl)-1-pyrrolidinyl]-quinolones and naphthyridones as antibacterial agents” (Warner-Lambert Company, priority 1995, dated 1996).
Converted amounts (≈) assume the structure as drawn. Where a name gives a salt, the structure may show the parent alone. Read-outs that look alike come from different tables or passages of the source.

What was measured:
Strep. pyogenes C-203 [1] = experiment: in vitro antibacterial activity, microtitration dilution (MIC), Strep. pyogenes C-203; format: cell-based; details: Streptococcus pyogenes, C203, read-out: minimum inhibiting concentration (MIC)
Description: (§1) The in vitro antibacterial activity, is obtained by the microtitration dilution method as described in Heifetz, et al., Antimicr. Agents & Chemother., 6, 124 (1974), which is incorporated herein by reference.
(§2) By use of the above methods, the following minimum inhibiting concentration values (MICs in μg/mL), PD50 's in mg/kg, no effect phototoxicity dose in mg/kg and the cytotoxicity IC50 in μg/mL were obtained for representative enantiomers of the invention and compounds of the prior art as shown in the table.

Klebs. pneumoniae MGH-2 = experiment: in vitro antibacterial activity, microtitration dilution (MIC), Klebs. pneumoniae MGH-2; format: cell-based; details: Klebsiella pneumoniae, MGH2, read-out: minimum inhibiting concentration (MIC)
Description: as §1, §2

Strep. faecalis MGH-2 = experiment: in vitro antibacterial activity, microtitration dilution (MIC), Strep. faecalis MGH-2; format: cell-based; details: Enterococcus faecalis, MGH2, read-out: minimum inhibiting concentration (MIC)
Description: as §1, §2

Strep. pyogenes C-203 [2] = experiment: median protective dose in mice given lethal systemic infections, Strep. pyogenes C-203; format: in vivo; details: Streptococcus pyogenes, single dose at time of challenge, read-out: median protective dose (PD50)
Protocol: (§3) The in vivo activity is obtained when the compounds are tested according to the procedure of Miller, et al (Proc. Soc. Exp. Biol. Med. 57, 261, 1944). The median protective dose (PD50) was determined in mice given lethal systemic infections. Single doses of compound were given at time of challenge.
as §2
(§4) The in vivo data as PD50 s are reported below the line of MICs for the same compound.

[3] = cytotoxicity, hamster V-79 cells, colony reduction; format: cell-based; details: 3 hours treatment, colonies counted after 5 days, read-out: Cytotox (cytotoxicity IC50)
Protocol: The cytotoxicity data is obtained using hamster V-79 cells. The cells were suspended in tissue culture medium and grown overnight. Cells were treated with drug for 3 hours, washed free of drug and then replated, and the colonies counted after 5 days. The concentration of drug that reduced colones by 50% relative to control was recorded.
as §2

Pseud. aeruginosa UI-18 = experiment: in vitro antibacterial activity, microtitration dilution (MIC), Pseud. aeruginosa UI-18; format: cell-based; details: Pseudomonas aeruginosa, UI18, read-out: minimum inhibiting concentration (MIC)
Description: as §1, §2

Esch. coli Vogel [4] = experiment: in vitro antibacterial activity, microtitration dilution (MIC), Esch. coli Vogel; format: cell-based; details: Escherichia coli, read-out: minimum inhibiting concentration (MIC)
Description: as §1, §2

Staph. aureus H 228 = experiment: in vitro antibacterial activity, microtitration dilution (MIC), Staph. aureus H 228; format: cell-based; details: Staphylococcus aureus, H228, read-out: minimum inhibiting concentration (MIC)
Description: as §1, §2

Prot. rettgeri M 1771 = experiment: in vitro antibacterial activity, microtitration dilution (MIC), Prot. rettgeri M 1771; format: cell-based; details: Providencia rettgeri, M1771, read-out: minimum inhibiting concentration (MIC)
Description: as §1, §2

Ent. cloacae MA2646 = experiment: in vitro antibacterial activity, microtitration dilution (MIC), Ent. cloacae MA2646; format: cell-based; details: Enterobacter cloacae, read-out: minimum inhibiting concentration (MIC)
Description: as §1, §2

Staph. aureus UC-76 = experiment: in vitro antibacterial activity, microtitration dilution (MIC), Staph. aureus UC-76; format: cell-based; details: Staphylococcus aureus, UC76, read-out: minimum inhibiting concentration (MIC)
Description: as §1, §2

Strep. pheumoniae SV-1 [5] = experiment: in vitro antibacterial activity, microtitration dilution (MIC), Strep. pneumoniae SV-1; format: cell-based; details: Streptococcus pneumoniae, SV1, read-out: minimum inhibiting concentration (MIC)
Description: as §1, §2

Esch. coli Vogel [6] = experiment: median protective dose in mice given lethal systemic infections, Esch. coli Vogel; format: in vivo; details: Escherichia coli, single dose at time of challenge, read-out: median protective dose (PD50)
Protocol: as §3, §2, §4

Strep. pheumoniae SV-1 [7] = experiment: median protective dose in mice given lethal systemic infections, Strep. pneumoniae SV-1; format: in vivo; details: Streptococcus pneumoniae, single dose at time of challenge, read-out: median protective dose (PD50)
Protocol: as §3, §2, §4

In the case of `CN[C@H](C)[C@H]1CCN(c2c(F)cc3c(=O)c(C(=O)O)cn(C4CC4)c3c2OC)C1` [Example 38, 3S,1R-1-cyclopropyl-6-fluoro-7-[3-(1-N-methylaminoethyl)-1-pyrrolidinyl]-8-methoxy-1,4-dihydro-4-oxo-3-quinolinecarboxy acid], the MIC (Strep. pyogenes C-203 [1]) is reported as 0.025 µg/mL (≈ 0.062 µM), the MIC (Klebs. pneumoniae MGH-2) is reported as 0.4 µg/mL (≈ 0.991 µM) and the MIC (Strep. faecalis MGH-2) is reported as 0.05 µg/mL (≈ 0.124 µM). The ED50 (Strep. pyogenes C-203 [2]; C203, PO) was 6 mg/kg, the ED50 (Strep. pyogenes C-203 [2]; C203, SC) was 1 mg/kg and the CC50 at 3 h [3] was 130 µg/mL (≈ 322 µM). The MIC (Pseud. aeruginosa UI-18) was 3.1 µg/mL (≈ 7.68 µM), the MIC (Esch. coli Vogel [4]) was 0.2 µg/mL (≈ 0.496 µM) and the MIC (Staph. aureus H 228) was 0.05 µg/mL (≈ 0.124 µM). It also gave an MIC (Prot. rettgeri M 1771) of 0.8 µg/mL (≈ 1.98 µM), an MIC (Ent. cloacae MA2646) of 0.2 µg/mL (≈ 0.496 µM) and an MIC (Staph. aureus UC-76) of 0.013 µg/mL (≈ 0.0322 µM). The MIC (Strep. pheumoniae SV-1 [5]) was 0.025 µg/mL (≈ 0.062 µM).

`CCOc1c(N2CC[C@@H]([C@H](C)NC)C2)c(F)cc2c(=O)c(C(=O)O)cn(C3CC3)c12` [Example 57, 3R,1S-1-cyclopropyl-8-ethoxy-6-fluoro-1,4-dihydro-7-[3-(1-N-methylaminoethyl)-1-pyrrolidinyl]-4-oxo-3-quinolinecarboxylic acid] gave an MIC (Strep. pyogenes C-203 [1]) of 0.025 µg/mL (≈ 0.0599 µM), an MIC (Klebs. pneumoniae MGH-2) of 0.4 µg/mL (≈ 0.958 µM) and an MIC (Strep. faecalis MGH-2) of 0.05 µg/mL (≈ 0.12 µM). For the same compound, the CC50 at 3 h [3] was 220 µg/mL (≈ 527 µM), the MIC (Pseud. aeruginosa UI-18) was 3.1 µg/mL (≈ 7.43 µM) and the MIC (Esch. coli Vogel [4]) was 0.4 µg/mL (≈ 0.958 µM). The MIC (Staph. aureus H 228) was 0.025 µg/mL (≈ 0.0599 µM), the MIC (Prot. rettgeri M 1771) was 0.8 µg/mL (≈ 1.92 µM) and the MIC (Ent. cloacae MA2646) was 0.4 µg/mL (≈ 0.958 µM). It also gave an MIC (Staph. aureus UC-76) of 0.013 µg/mL (≈ 0.0311 µM) and an MIC (Strep. pheumoniae SV-1 [5]) of 0.025 µg/mL (≈ 0.0599 µM).

For `Cc1c(F)c(N2CC[C@@H]([C@H](C)N)C2)cc2c1c(=O)c(C(=O)O)cn2-c1ccc(F)cc1F` [Example 65, 3R,1S-7-[3-(1-aminoethyl)-1-pyrrolidinyl]-1-(2,4-difluorophenyl)-6-fluoro-1,4-dihydro-5-methyl-4-oxo-3-quinolinecarboxylic acid, monohydrochloride], the MIC (Strep. pyogenes C-203 [1]) was 0.003 µg/mL, the MIC (Klebs. pneumoniae MGH-2) was 0.2 µg/mL and the MIC (Strep. faecalis MGH-2) was 0.025 µg/mL. For the same compound, the ED50 (Strep. pyogenes C-203 [2]; C203, PO) was 5 mg/kg, the ED50 (Strep. pyogenes C-203 [2]; C203, SC) was 0.6 mg/kg and the CC50 at 3 h [3] was 10 µg/mL. For the same compound, the MIC (Pseud. aeruginosa UI-18) was 0.8 µg/mL, the MIC (Esch. coli Vogel [4]) was 0.1 µg/mL and the MIC (Staph. aureus H 228) was 0.013 µg/mL. The MIC (Prot. rettgeri M 1771) was 0.4 µg/mL, the MIC (Ent. cloacae MA2646) was 0.1 µg/mL and the MIC (Staph. aureus UC-76) was 0.006 µg/mL. For the same compound, the MIC (Strep. pheumoniae SV-1 [5]) was 0.003 µg/mL.

With `CCN[C@H](C)[C@H]1CCN(c2nc3c(cc2F)c(=O)c(C(=O)O)cn3C2CC2)C1` [Example 79, 3S,1R-1-cyclopropyl-7-[3-[1-(ethylamino)ethyl]-1-pyrrolidinyl]-6-fluoro-1,4-dihydro-4-oxo-1,8-naphthyridine-3-carboxylic acid] the MIC (Strep. pyogenes C-203 [1]) was 0.05 µg/mL (≈ 0.129 µM), the MIC (Klebs. pneumoniae MGH-2) was 0.2 µg/mL (≈ 0.515 µM) and the MIC (Strep. faecalis MGH-2) was 0.05 µg/mL (≈ 0.129 µM). For the same compound, the ED50 (Strep. pyogenes C-203 [2]; C203, PO) was 2 mg/kg, the ED50 (Strep. pyogenes C-203 [2]; C203, SC) was 2 mg/kg and the MIC (Pseud. aeruginosa UI-18) was 1.6 µg/mL (≈ 4.12 µM). For the same compound, the MIC (Esch. coli Vogel [4]) was 0.1 µg/mL (≈ 0.257 µM), the MIC (Staph. aureus H 228) was 0.1 µg/mL (≈ 0.257 µM) and the MIC (Prot. rettgeri M 1771) was 0.8 µg/mL (≈ 2.06 µM). The MIC (Ent. cloacae MA2646) was 0.1 µg/mL (≈ 0.257 µM), the MIC (Staph. aureus UC-76) was 0.025 µg/mL (≈ 0.0644 µM) and the MIC (Strep. pheumoniae SV-1 [5]) was 0.025 µg/mL (≈ 0.0644 µM). For the same compound, the ED50 (Esch. coli Vogel [6]; PO) was 2 mg/kg and the ED50 (Esch. coli Vogel [6]; SC) was 1 mg/kg.

In the case of `CN[C@H](C)[C@@H]1CCN(c2nc3c(cc2F)c(=O)c(C(=O)O)cn3C2CC2)C1` [Example 22, 3R,1R-1-cyclopropyl-6-fluoro-7-[3-(1-N-methylaminoethyl)-1-pyrrolidinyl]-1,4-dihydro-4-oxo-1,8-naphthyridine-3-carboxylic acid], the MIC (Strep. pyogenes C-203 [1]) is reported as 0.05 µg/mL (≈ 0.134 µM), the MIC (Klebs. pneumoniae MGH-2) is reported as 0.2 µg/mL (≈ 0.534 µM) and the MIC (Strep. faecalis MGH-2) is reported as 0.025 µg/mL (≈ 0.0668 µM). For the same compound, the ED50 (Strep. pyogenes C-203 [2]; C203, PO) was 8 mg/kg, the ED50 (Strep. pyogenes C-203 [2]; C203, SC) was 5 mg/kg and the CC50 at 3 h [3] was 88 µg/mL (≈ 235 µM). The MIC (Pseud. aeruginosa UI-18) was 1.6 µg/mL (≈ 4.27 µM), the MIC (Esch. coli Vogel [4]) was 0.1 µg/mL (≈ 0.267 µM) and the MIC (Staph. aureus H 228) was 0.1 µg/mL (≈ 0.267 µM). For the same compound, the MIC (Prot. rettgeri M 1771) was 0.4 µg/mL (≈ 1.07 µM), the MIC (Ent. cloacae MA2646) was 0.1 µg/mL (≈ 0.267 µM) and the MIC (Staph. aureus UC-76) was 0.05 µg/mL (≈ 0.134 µM). The MIC (Strep. pheumoniae SV-1 [5]) was 0.05 µg/mL (≈ 0.134 µM), the ED50 (Esch. coli Vogel [6]; PO) was 4.6 mg/kg and the ED50 (Esch. coli Vogel [6]; SC) was 1.2 mg/kg.

With `CCN[C@@H](C)[C@@H]1CCN(c2nc3c(cc2F)c(=O)c(C(=O)O)cn3-c2ccc(F)cc2F)C1` [Example 50, 3R,1S-7-[3-(1-N-ethylaminoethyl)-1-pyrrolidinyl]-1-(2,4-difluorophenyl)-6-fluoro-1,4-dihydro-4-oxo-1,8-naphthyridine-3-carboxylic acid] the MIC (Strep. pyogenes C-203 [1]) was 0.1 µg/mL (≈ 0.217 µM), the MIC (Klebs. pneumoniae MGH-2) was 0.8 µg/mL (≈ 1.74 µM) and the MIC (Strep. faecalis MGH-2) was 0.2 µg/mL (≈ 0.434 µM). It also gave an MIC (Pseud. aeruginosa UI-18) of 3.1 µg/mL (≈ 6.73 µM), an MIC (Esch. coli Vogel [4]) of 0.4 µg/mL (≈ 0.869 µM) and an ED50 (Strep. pheumoniae SV-1 [7]; SV1, PO) of 2 mg/kg. The ED50 (Strep. pheumoniae SV-1 [7]; SV1, SC) was 2 mg/kg, the MIC (Staph. aureus H 228) was 0.05 µg/mL (≈ 0.109 µM) and the MIC (Prot. rettgeri M 1771) was 1.6 µg/mL (≈ 3.47 µM). It also gave an MIC (Ent. cloacae MA2646) of 0.8 µg/mL (≈ 1.74 µM), an MIC (Staph. aureus UC-76) of 0.013 µg/mL (≈ 0.0282 µM) and an MIC (Strep. pheumoniae SV-1 [5]) of 0.1 µg/mL (≈ 0.217 µM).
